Measured values as given in ChEMBL document CHEMBL4196131 (J Med Chem, 2018).

Assays:
[1] = molecular target: T1, Estrogen receptor (Homo sapiens) (UniProt P03372); assay: Agonist activity at human ERalpha expressed in HEK293T cells after 24 hrs by ERE-based dual luciferase reporter gene assay relative to E2; assay type: cell-based
T1 sequence (whole entry): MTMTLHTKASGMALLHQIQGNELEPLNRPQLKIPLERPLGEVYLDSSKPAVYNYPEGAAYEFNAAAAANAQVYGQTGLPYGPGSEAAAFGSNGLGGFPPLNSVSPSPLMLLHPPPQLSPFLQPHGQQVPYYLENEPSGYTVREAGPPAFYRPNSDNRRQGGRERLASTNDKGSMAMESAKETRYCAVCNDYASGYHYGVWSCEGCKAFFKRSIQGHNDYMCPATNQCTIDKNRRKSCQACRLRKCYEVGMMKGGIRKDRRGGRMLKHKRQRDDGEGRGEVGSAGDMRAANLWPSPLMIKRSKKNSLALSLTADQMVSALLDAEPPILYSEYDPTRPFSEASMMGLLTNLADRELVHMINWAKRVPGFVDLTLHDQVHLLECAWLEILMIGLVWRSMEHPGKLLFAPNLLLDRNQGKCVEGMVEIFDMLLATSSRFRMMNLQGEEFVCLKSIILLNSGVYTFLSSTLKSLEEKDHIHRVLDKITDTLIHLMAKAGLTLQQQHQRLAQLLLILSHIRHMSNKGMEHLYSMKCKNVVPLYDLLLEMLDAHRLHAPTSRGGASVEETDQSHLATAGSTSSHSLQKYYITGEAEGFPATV

[2] = molecular target: T2, Estrogen receptor beta (Homo sapiens, UniProt Q92731); assay: Agonist activity at human ERbeta expressed in HEK293T cells after 24 hrs by ERE-based dual luciferase reporter gene assay relative to E2; assay type: cell-based
T2 sequence (Q92731 whole entry): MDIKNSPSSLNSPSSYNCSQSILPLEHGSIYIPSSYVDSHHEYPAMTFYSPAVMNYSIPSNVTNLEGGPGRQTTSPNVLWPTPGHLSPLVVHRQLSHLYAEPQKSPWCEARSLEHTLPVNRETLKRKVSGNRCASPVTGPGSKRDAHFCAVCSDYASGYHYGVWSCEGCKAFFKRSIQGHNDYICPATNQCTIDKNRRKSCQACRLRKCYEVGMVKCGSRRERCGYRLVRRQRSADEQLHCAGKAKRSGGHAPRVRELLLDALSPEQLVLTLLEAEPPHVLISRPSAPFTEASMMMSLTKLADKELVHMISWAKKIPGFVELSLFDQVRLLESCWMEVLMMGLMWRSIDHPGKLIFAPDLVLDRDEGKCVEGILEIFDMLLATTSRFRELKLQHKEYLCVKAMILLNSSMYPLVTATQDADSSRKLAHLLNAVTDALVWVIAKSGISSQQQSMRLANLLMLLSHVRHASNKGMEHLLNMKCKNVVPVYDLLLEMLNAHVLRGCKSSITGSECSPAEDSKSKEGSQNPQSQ

[3] = molecular target: T3, Estrogen receptor (Homo sapiens, UniProt P03372); assay: Antagonist activity at human ERalpha expressed in HEK293T cells after 24 hrs by ERE-based dual luciferase reporter gene assay; assay type: cell-based
T3 sequence (P03372 whole entry): T1 sequence (whole entry)

[4] = molecular target: T1, Estrogen receptor (Homo sapiens); assay: Antagonist activity at human ERalpha expressed in HEK293T cells after 24 hrs by ERE-based dual luciferase reporter gene assay relative to E2; assay type: cell-based
[5] = molecular target: T2, Estrogen receptor beta; assay: Antagonist activity at human ERbeta expressed in HEK293T cells after 24 hrs by ERE-based dual luciferase reporter gene assay; assay type: cell-based
[6] = molecular target: T2, Estrogen receptor beta; assay: Antagonist activity at human ERbeta expressed in HEK293T cells after 24 hrs by ERE-based dual luciferase reporter gene assay relative to E2; assay type: cell-based; set-up: concentration or dose not given beside the values
[7] = Inhibition of NFkappaB in mouse RAW 264.7 cells assessed as reduction in LPS induced NO production after 24 hrs by Griess assay; assay type: cell-based; conditions: RAW264.7, 24 h
[8] = organism: Mus musculus; assay: Inhibition of NFkappaB in mouse RAW 264.7 cells assessed as reduction in LPS induced NO production at 10 uM after 24 hrs by Griess assay relative to control; assay type: cell-based
[9] = tested on: MCF7; assay: cells; conditions: Homo sapiens, MCF7, 72 h
[10] = molecular target: T2, Estrogen receptor beta; assay: Agonist activity at human ERbeta expressed in HEK293T cells after 24 hrs by ERE-based dual luciferase reporter gene assay; assay type: cell-based
[11] = molecular target: T3, Estrogen receptor; assay: Agonist activity at human ERalpha expressed in HEK293T cells after 24 hrs by ERE-based dual luciferase reporter gene assay; assay type: cell-based
[12] = molecular target: T2, Estrogen receptor beta; assay: Binding affinity to human ERbeta LBD after 2 hrs in absence of light by competitive fluorometric binding assay

SMILES	Efficacy [1] [%]	Efficacy [2] [%]	IC50 [3] [nM]	Efficacy [4] [%]	IC50 [5] [nM]	Efficacy [6] [%]	IC50 [7] [nM]	inhibition [8] [%]	IC50 [9] [nM]	EC50 [10] [nM]	EC50 [11] [nM]	Ki [12] [nM]
Cc1cccc(OS(=O)(=O)C2CC3OC2C(c2ccc(/C=C/c4cc(O)cc(O)c4)cc2)=C3c2ccc(O)cc2)c1 (configuration not stated)	22	-3	947	2	3110	46	2410	68.4	16300			
O=S(=O)(Oc1cccc(Cl)c1)C1CC2OC1C(c1ccc(/C=C/c3cc(O)cc(O)c3)cc1)=C2c1ccc(O)cc1 (configuration not stated)	16	60	932	4		91	2140	62.1	12900	2		
O=S(=O)(Oc1ccccc1Cl)C1CC2OC1C(c1ccc(/C=C/c3cc(O)cc(O)c3)cc1)=C2c1ccc(O)cc1 (configuration not stated)	79	25	166	49	4310	45	5000	60.9	40400	63	273	
O=S(=O)(Oc1ccccc1)C1CC2OC1C(c1ccc(/C=C/c3cc(O)cc(O)c3)cc1)=C2c1ccc(O)cc1 (configuration not stated)	29	37	428	4		76	6020	70.9	20100	658		
O=S(=O)(Oc1ccc(-c2ccccc2)cc1)C1CC2OC1C(c1ccc(/C=C/c3cc(O)cc(O)c3)cc1)=C2c1ccc(O)cc1 (configuration not stated)	41	82		68		97	18700	43	7800	43	4930	
CC/C(=C(\c1ccc(O)cc1)c1ccc(OCCN(C)C)cc1)c1ccccc1 [AFIMOXIFENE]							> 100000	21.5	9500			
O=S(=O)(Oc1cccc2ccccc12)C1CC2OC1C(c1ccc(/C=C/c3cc(O)cc(O)c3)cc1)=C2c1ccc(O)cc1 (configuration not stated)	-10	65	49	-4		71	3290	44.4	11000	222		
CCc1ccccc1OS(=O)(=O)C1CC2OC1C(c1ccc(/C=C/c3cc(OC)cc(OC)c3)cc1)=C2c1ccc(O)cc1 (configuration not stated)	18	20	3	37		72	790	65.4	49800	9	146	
O=S(=O)(Oc1cccc(/C=C/c2cc(O)cc(O)c2)c1)C1CC2OC1C(c1ccc(O)cc1)=C2c1ccc(O)cc1 (configuration not stated)	15	62	1410	29		93	16700	24.8	17800	749		4580
COc1cc(/C=C/c2ccc(OS(=O)(=O)[C@@H]3C[C@@H]4O[C@H]3C(c3ccc(O)cc3)=C4c3ccc(O)cc3)cc2)cc(OC)c1			3	11			300		2310			
O=S(=O)(Oc1ccccc1)C1CC2OC1C(c1ccc(/C=C/c3ccccc3)cc1)=C2c1ccc(O)cc1 (configuration not stated)	13	48	1030	34		83	9700	40.4	25200	2780		
O=S(=O)(Oc1ccc(Br)cc1)C1CC2OC1C(c1ccc(/C=C/c3cc(O)cc(O)c3)cc1)=C2c1ccc(O)cc1 (configuration not stated)	-9	10	61	15	2530	43	16500	22	16900			
COc1cc(/C=C/c2cccc(OS(=O)(=O)C3CC4OC3C(c3ccc(O)cc3)=C4c3ccc(O)cc3)c2)cc(OC)c1 (configuration not stated)	13	47	738	47		86	6370	55.1	11500			
O=S(=O)(Oc1ccc(Cl)cc1)C1CC2OC1C(c1ccc(/C=C/c3cc(O)cc(O)c3)cc1)=C2c1ccc(O)cc1 (configuration not stated)	-5	7	62	11	1020	33	6500	62.1	17900			
O=S(=O)(Oc1cccc(Br)c1)C1CC2OC1C(c1ccc(/C=C/c3cc(O)cc(O)c3)cc1)=C2c1ccc(O)cc1 (configuration not stated)	3	-2	2420	21		65	2530	60.9	19800			50
O=S(=O)(Oc1ccc(F)cc1)C1CC2OC1C(c1ccc(/C=C/c3cc(O)cc(O)c3)cc1)=C2c1ccc(O)cc1 (configuration not stated)	16	45	5	7		98	8880	71.9	13100	276		
O=S(=O)(Oc1ccc(/C=C/c2cc(O)cc(O)c2)cc1)C1CC2OC1C(c1ccc(O)cc1)=C2c1ccc(O)cc1 (configuration not stated)	-9	51	19	7		99	930	81	10500	194		
COc1cc(/C=C/c2ccc(OS(=O)(=O)[C@H]3C[C@H]4O[C@@H]3C(c3ccc(O)cc3)=C4c3ccc(O)cc3)cc2)cc(OC)c1			27	72			480		18000			
O=S(=O)(Oc1ccc(O)cc1)C1CC2OC1C(c1ccc(/C=C/c3cc(O)cc(O)c3)cc1)=C2c1ccc(O)cc1 (configuration not stated)	12	51	54	8		88		41	14100	355		
O=S(=O)(Oc1ccc(/C=C/c2ccccc2)cc1)C1CC2OC1C(c1ccc(O)cc1)=C2c1ccc(O)cc1 (configuration not stated)	6	25	149	54		74	2230	72.4	8300	31		
Cc1ccccc1OS(=O)(=O)C1CC2OC1C(c1ccc(/C=C/c3cc(O)cc(O)c3)cc1)=C2c1ccc(O)cc1 (configuration not stated)	84	36	10	36		100	28400	39.1	55800	242	1250	
O=S(=O)(Oc1cccc(C(F)(F)F)c1)C1CC2OC1C(c1ccc(/C=C/c3cc(O)cc(O)c3)cc1)=C2c1ccc(O)cc1 (configuration not stated)	-7	29	72	-10	42	31	14600	41.6	11500	1730		
COc1cccc(OS(=O)(=O)C2CC3OC2C(c2ccc(/C=C/c4cc(O)cc(O)c4)cc2)=C3c2ccc(O)cc2)c1 (configuration not stated)	55	52	48	36		102	11100	42.3	10400	3		
O=S(=O)(Oc1cccc(O)c1)C1CC2OC1C(c1ccc(/C=C/c3cc(O)cc(O)c3)cc1)=C2c1ccc(O)cc1 (configuration not stated)	5	17	6020	17		106	> 100000	12.3	23000			
COc1cc(/C=C/c2ccc(C3=C(c4ccc(O)cc4)C4CC(S(=O)(=O)Oc5cccc(OC)c5)C3O4)cc2)cc(OC)c1 (configuration not stated)	-2	37		32	646	39	1260	60.1	77100	941		
